This note sets out measurements from US20260217698A1 (BEYANG THERAPEUTICS CO., LTD., priority 2022, published 2026).

In brackets after ≈: the same amount, converted by molar mass. Where two headings read alike, the source gives them in different places.

Data set [1] has as its target T1, EGFR (Homo sapiens, UniProt P00533).
T1 construct: purchased Carna 08-115
Description: Kinase inhibition, Mobility Shift Assay/IMAP, EGFR. It is filed as biochemical. In outline: (§1)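 Substrate conversion (phosphorylated vs non-phosphorylated) read by mobility shift on Caliper EZ Reader II and converted to % inhibition relative to no-enzyme and DMSO controls. IC50 fitted from % inhibition versus log compound concentration.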

Data set [2] addresses T2, VEGFR1 (Homo sapiens, UniProt P17948).
T2 construct: purchased Invitrogen PR6731B
Put plainly: Kinase inhibition, Mobility Shift Assay/IMAP, VEGFR1. It is filed as biochemical. In outline: as §1

For data set [3], the target named is T3, TIE2 (Homo sapiens, UniProt Q02763).
T3 construct: purchased BPS 40270
T3 sequence (Q02763 23-1124): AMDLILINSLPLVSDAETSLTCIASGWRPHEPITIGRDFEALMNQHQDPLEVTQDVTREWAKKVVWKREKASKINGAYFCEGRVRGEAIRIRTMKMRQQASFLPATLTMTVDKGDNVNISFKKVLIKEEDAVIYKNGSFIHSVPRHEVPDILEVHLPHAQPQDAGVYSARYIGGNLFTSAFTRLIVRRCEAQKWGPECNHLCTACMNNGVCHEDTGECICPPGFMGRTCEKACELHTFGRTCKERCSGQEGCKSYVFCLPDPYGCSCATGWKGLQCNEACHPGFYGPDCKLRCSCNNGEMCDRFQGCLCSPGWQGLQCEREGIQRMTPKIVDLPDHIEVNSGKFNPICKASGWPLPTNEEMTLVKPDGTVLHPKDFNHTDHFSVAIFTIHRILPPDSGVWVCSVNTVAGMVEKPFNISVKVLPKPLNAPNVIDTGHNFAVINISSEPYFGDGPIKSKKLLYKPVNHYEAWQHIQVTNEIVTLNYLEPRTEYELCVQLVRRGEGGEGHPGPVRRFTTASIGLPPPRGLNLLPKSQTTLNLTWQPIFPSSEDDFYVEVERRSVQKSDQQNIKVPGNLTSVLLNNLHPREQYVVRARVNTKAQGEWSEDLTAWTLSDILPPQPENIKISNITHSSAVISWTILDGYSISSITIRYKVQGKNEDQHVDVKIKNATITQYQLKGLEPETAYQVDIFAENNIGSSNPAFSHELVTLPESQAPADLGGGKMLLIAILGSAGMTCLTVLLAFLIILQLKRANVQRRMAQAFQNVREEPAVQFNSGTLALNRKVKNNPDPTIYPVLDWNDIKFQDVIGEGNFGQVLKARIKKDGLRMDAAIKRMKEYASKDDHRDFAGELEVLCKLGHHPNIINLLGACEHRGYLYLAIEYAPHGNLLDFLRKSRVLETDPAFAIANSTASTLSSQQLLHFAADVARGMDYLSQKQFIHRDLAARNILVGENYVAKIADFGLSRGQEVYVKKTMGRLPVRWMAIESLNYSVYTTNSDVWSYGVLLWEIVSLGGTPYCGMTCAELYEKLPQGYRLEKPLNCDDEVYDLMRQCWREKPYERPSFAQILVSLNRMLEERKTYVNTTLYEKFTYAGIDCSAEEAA
Description: Kinase inhibition, Mobility Shift Assay/IMAP, TIE2. Type of data set: biochemical. In short, it runs like this:
as §1

Data set [4] concerns HUVEC cells. Description: Inhibition of VEGF-induced HUVEC cell proliferation, CellTiter Glo. It is filed as cell-based. The note with it: Homo sapiens, 20 ng/ml VEGF, 72 hours. The text has this:
In this experiment, human umbilical vein endothelial cells (HUVEC, Lonza) were used. HUVEC cells are primary cells isolated from umbilical veins. This cell line is a model system to study the functions of endothelial cells. Endothelial cell proliferation in response to VEGF is crucial to the pathological angiogenesis associated with conditions such as tumor development and ocular neovascular diseases.
In this assay, a luciferase bioluminescence assay (CellTiter GLU™, Promega) is used to determine the inhibitory activity of the compounds against VEGF-induced HUVEC cell proliferation and viability. CellTiter GLO™ is a homogeneous method for quantifying the count of viable cells in culture based on ATP, an indicator of metabolically active cells. In this assay, the compound was incubated with HUVEC cells for 72 hours, and then the inhibitory activity of the resulting compound against VEGF-induced HUVEC cell proliferation was measured on the En Vision plate reader.
With the RPMI-1640 medium (plus 5% FBS, 1% Penicillin-Streptomycin) used for the HUVEC cell proliferation experiment, add a cell suspension to a 96-well plate at 100 μl per well, i.e., 4000 HUVEC cells/well, and incubate them overnight in a 5% CO2 incubator at 37° C. (serum starvation). After 24 hours, add 96 μl of the experimental medium to the cell wells, and then add 2 μl of the compound to the cell wells; and after 1 hour following the addition of the compound, add 2 μl of 2 μg/ml VEGF to the cell wells. Add 0.1% DMSO and 20 ng/ml VEGF to cell wells to serve as high-reading control wells. Take cell-free wells with only medium as low-reading control wells. […] After 72 hours of incubation of the cell plate in the incubator, hold the cell plate to be tested at room temperature and discard 100 μl of medium per well. Add 100 μl of CTG reagent (CellTiter Glo kit) per well, oscillate the cell plate in a fast oscillator for 3 minutes, and keep the cell plate at room temperature in the dark for 30 minutes. Read the chemiluminescence signal value with the Envision instrument.
X indicates the log value of compound concentration, Y indicates the inhibition rate (% inhibition), Top indicates the readout of the high-reading control well.

Data set [5] can be described thus: Solubility test in buffer, LC-MS. Type of data set: physicochemical. The note with it: aqueous buffer, thermodynamic from solid, room temperature, shaking 8 h, pH not given (method: pH 2.0, 6.5, 7.4). In outline: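 Compound at 2 mg/mL in buffers of pH 2.0, 6.5 and 7.4, sonicated, shaken 8 h at room temperature, then centrifuged at 13,000 rpm. Supernatant quantified by LC-MS against a 3–5 point calibration.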

In data set [6] the target is T4, VEGFR3 (Homo sapiens, UniProt P35916).
T4 construct: purchased Invitrogen PV4129
Put plainly: Kinase inhibition, Mobility Shift Assay/IMAP, VEGFR3. It is filed as biochemical. In short, it runs like this: as §1

For data set [7], the target named is T5, VEGFR2 (Homo sapiens, UniProt P35968). Description: Inhibition of VEGF-induced VEGFR2 autophosphorylation (pVEGFR2) in HUVEC cells, ELISA. Conditions: 50 ng/mL human VEGF, compound 1 h. Also noted: endogenous in cells; host or cells: HUVEC. Type of data set: cell-based. The text has this:
Vascular endothelial growth factor receptor 2 (VEGFR2) is a primary receptor for VEGF-induced endothelial cell signaling. After ligand binding, VEGFR2 is autophosphorylated and activated. The main function of signaling from VEGFR2 is to induce vascularization during development and after tissue injury, and to bypass blocked blood vessels. Pathologically, VEGF and VEGFR2 are involved in tumor angiogenesis and vascular leakage. They are considered to be main participants in many different cancers and ocular diseases that accompany pathological neovascularization. This assay measured the ability of the compounds to inhibit VEGF-induced VEGFR2 autophosphorylation (pVEGFR2) in HUVEC cells by using ELISA.
Culture cells in a cell culture flask to reach a fusion degree of 60%-80% before cell inoculation. Dilute the cell suspension to […] with a pre-warmed complete medium. Add 80 μL of the cell suspension to all wells of a 96-well cell plate (Corning-3599); and incubate the plate overnight at 37° C. in the presence of 5% CO2. Dissolve the compound powder to 10 mM with DMSO and store it in a nitrogen cabinet. Compound dilution plate: Add a reference compound Ponatinib or a compound to be tested to a 96 V-well plate (Axygen-WIPP 2280) at concentrations achieved as follows: performing 3-fold gradient dilution starting from 5 mM (5 μL of 10 mM compound solution plus 5 μL of DMSO) for a total of 8 concentration points. […] Transfer 20 μL of the diluted compound from the intermediate plate to a cell plate. Then, incubate the cell plate for 1 h at 37° C. in the presence of 5% CO2. After the compound was treated for 1 h, add 25 μL of 250 ng/ml human VEGF at a final concentration of 50 ng/mL to a 96-well plate; and incubate the plate for 5 min at 37° C. in the presence of 5% CO2, centrifuge the plate for 10 min at 3,000 rpm, remove the medium and wash the cells once with 300 μL of pre-chilled DPBS per well. Then, centrifuge the plate for 10 min at 4,000 rpm, remove DPBS, and add 110 μL of pre-chilled 1× cell lysis buffer per well to the 96-well plate. Shake the plate for 40 min at 4° C. Then, freeze the plate in a refrigerator at −80° C. On the next day, remove the plate from the refrigerator at −80° C., thaw the plate, centrifuge the plate for 10 min at 3500 rpm, and add 100 μL of the supernatant per well to an ELISA plate. Seal the plate and incubate it for 2 h at 37° C. Wash the wells 4 times with 1× wash buffer. Add 100 μL of recombinant detection antibody per well. Seal the plate, incubate the plate for 1 h at 37° C., and repeat the step of plate washing. Add 100 μL of secondary antibody per well. Seal the plate, incubate the plate for 30 min at 37° C., and repeat the step of plate washing. Add 100 μL of TMB (protected from light) per well. Seal the plate, incubate the plate for 30 min at 37° C., and add 100 μL of the stop solution per well. Gently shake for 30 sec, measure the absorbance with a SpectraMax® 340 PC 384 Absorbance Microplate Reader within 30 min, and read an optical density value at 450 nm. Conduct data analysis using XL Fit software:
Conduct curve fitting using the 4 Parameter Logistic Model or Sigmoidal Dose-Response Model to obtain IC50 values.
X indicates the log value of compound concentration, Y indicates the inhibition rate (% inhibition), Top indicates the readout of the negative control wells, and Bottom indicates the readout of the positive control well.
Target sequence in this assay (P35968 20-1356): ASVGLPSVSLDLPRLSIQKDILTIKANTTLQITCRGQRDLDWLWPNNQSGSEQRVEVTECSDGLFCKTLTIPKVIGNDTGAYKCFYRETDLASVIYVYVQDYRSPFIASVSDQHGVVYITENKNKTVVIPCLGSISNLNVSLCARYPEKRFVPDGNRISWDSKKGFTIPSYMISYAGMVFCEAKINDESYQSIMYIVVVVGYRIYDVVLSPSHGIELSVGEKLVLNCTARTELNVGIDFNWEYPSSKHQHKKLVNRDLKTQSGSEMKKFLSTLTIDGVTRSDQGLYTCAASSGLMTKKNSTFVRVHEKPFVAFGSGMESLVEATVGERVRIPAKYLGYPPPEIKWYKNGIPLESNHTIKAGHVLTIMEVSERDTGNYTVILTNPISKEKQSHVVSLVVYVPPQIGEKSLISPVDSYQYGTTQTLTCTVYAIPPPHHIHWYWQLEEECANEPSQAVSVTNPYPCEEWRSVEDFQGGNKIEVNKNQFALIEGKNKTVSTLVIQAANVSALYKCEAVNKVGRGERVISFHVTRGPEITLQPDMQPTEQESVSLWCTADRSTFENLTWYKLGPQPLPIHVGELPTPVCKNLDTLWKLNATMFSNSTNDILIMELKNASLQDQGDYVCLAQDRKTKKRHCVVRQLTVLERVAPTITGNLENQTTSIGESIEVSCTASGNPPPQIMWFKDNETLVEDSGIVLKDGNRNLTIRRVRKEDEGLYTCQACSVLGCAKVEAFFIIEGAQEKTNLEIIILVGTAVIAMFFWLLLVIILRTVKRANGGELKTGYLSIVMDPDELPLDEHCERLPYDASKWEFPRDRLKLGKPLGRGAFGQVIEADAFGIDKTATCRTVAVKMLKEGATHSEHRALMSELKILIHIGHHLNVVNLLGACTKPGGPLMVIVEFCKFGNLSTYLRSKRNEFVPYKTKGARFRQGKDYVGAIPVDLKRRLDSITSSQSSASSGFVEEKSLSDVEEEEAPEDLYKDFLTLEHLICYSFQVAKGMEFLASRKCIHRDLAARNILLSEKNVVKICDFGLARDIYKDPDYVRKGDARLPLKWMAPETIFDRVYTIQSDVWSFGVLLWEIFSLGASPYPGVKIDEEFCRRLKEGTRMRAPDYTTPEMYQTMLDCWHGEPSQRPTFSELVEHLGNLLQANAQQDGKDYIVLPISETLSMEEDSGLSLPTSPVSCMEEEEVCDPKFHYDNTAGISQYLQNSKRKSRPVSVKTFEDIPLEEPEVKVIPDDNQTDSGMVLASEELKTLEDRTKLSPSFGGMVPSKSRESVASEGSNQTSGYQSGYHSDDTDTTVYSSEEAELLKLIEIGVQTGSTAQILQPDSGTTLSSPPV

For data set [8], the target named is T5, VEGFR2. Description: Kinase inhibition, Mobility Shift Assay/IMAP, VEGFR2. Also noted: purchased Carna 08-191. Type of data set: biochemical. In outline: as §1
Target sequence in this assay (P35968 790-1356 limits assumed): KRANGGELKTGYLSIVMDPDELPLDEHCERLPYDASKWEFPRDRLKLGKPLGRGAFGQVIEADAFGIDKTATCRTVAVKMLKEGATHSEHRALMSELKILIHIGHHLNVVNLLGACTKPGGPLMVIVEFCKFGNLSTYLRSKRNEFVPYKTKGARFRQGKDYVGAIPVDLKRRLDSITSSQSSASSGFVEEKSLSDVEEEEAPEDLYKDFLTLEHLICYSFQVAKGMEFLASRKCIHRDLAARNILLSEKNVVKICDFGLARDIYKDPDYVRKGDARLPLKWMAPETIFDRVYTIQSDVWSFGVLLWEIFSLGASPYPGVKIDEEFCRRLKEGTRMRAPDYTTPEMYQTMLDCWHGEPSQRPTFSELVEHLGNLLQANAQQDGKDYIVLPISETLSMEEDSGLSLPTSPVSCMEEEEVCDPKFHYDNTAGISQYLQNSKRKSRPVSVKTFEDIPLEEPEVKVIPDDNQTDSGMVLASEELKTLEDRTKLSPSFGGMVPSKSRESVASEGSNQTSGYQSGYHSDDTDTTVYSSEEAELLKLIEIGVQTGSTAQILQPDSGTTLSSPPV
The conditions of data set [9]: rabbit; for MTD on the third day of eye drop administration: eye drops 3 times a day, both eyes; for MTD on the eighth day of eye drop administration: six consecutive days of eye drops, 3 times a day.
Description: We used male Dutch black-banded rabbits to assess the MTD of the compounds administered in eye drops.
Male Dutch black-banded rabbits (weighing 1.5 kg to 2.5 kg) were purchased from an eligible supplier.
A total of 8 rabbits animals with good health conditions and normal eyes (without abnormalities such as trauma, congestion, redness and swelling) were randomly divided into 4 groups. […] Eye drop administration was conducted for two consecutive days, 3 times a day, at an interval of 6±0.5 hours. Before administration, the status of the dosing preparation was inspected, and its homogeneity was ensured by means of vortexing, stirring, or shaking. Before each administration, the states of rabbit eyes were observed, including but not limited to eye color, substances around the eyes, conjunctival swelling, eye exudate, discharge, cornea, pupillary reflex, etc. Subsequently, the toxicity risk assessment for six consecutive days of eye drop administration was further conducted. A total of 8 rabbits were randomly divided into 2 groups. […] Eye drop administration was conducted 3 times a day, at an interval of 6±0.5 hours.
The subject of data set [10] is male black-banded Dutch rabbits.
Description: The binding of the compound to melanin may affect ocular pharmacokinetics after topical administration. […] In such cases, the compound may bind to melanin tissues in the posterior segment (retinal pigment epithelium, choroid) or anterior segment (ciliary body, iris) of the eye.
The subject of data set [11] is melanin. Put plainly: Binding capacity of compounds to melanin. It is filed as in vitro ADME, cuttlefish (Sepia officinalis). The note with it: cuttlefish (Sepia officinalis), melanin suspension (1 mg/mL); 1 mg/mL melanin in PBS pH 7.4, 2 μM compound, 2 h at 37° C.; read-out: Fu % (percentage of free drug). In short, it runs like this: (§2)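 Compound (2 μM final) incubated with washed Sepia melanin (1 mg/mL, PBS pH 7.4) 2 h at 37° C with shaking; PBS with 0.1% BSA served as blank. Supernatants quantified by LC-MS/MS; bound fraction Fb derived from melanin versus blank concentration.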

Data set [12] is described as follows: Binding capacity of compounds to melanin. Type of data set: in vitro ADME, cuttlefish (Sepia officinalis). In outline: as §2
The mark [13] stands for this setting: eye drops, male black-banded Dutch rabbits, third day after eye drop administration.

T1 sequence (P00533 669-1210 limits assumed): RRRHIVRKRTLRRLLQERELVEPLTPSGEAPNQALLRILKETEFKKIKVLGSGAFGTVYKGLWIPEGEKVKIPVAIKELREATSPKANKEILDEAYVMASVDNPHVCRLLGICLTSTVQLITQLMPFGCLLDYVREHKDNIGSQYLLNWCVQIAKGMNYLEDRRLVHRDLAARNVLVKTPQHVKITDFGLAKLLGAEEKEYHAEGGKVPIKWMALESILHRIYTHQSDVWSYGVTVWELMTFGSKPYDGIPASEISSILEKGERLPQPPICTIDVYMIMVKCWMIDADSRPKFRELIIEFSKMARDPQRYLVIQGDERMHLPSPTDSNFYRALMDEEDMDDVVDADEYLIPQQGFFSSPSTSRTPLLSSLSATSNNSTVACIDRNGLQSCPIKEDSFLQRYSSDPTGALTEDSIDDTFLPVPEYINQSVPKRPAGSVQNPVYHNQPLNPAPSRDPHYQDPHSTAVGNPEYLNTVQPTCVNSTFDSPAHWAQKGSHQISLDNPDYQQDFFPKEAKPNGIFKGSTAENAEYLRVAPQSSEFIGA
T2 sequence (P17948 27-1338): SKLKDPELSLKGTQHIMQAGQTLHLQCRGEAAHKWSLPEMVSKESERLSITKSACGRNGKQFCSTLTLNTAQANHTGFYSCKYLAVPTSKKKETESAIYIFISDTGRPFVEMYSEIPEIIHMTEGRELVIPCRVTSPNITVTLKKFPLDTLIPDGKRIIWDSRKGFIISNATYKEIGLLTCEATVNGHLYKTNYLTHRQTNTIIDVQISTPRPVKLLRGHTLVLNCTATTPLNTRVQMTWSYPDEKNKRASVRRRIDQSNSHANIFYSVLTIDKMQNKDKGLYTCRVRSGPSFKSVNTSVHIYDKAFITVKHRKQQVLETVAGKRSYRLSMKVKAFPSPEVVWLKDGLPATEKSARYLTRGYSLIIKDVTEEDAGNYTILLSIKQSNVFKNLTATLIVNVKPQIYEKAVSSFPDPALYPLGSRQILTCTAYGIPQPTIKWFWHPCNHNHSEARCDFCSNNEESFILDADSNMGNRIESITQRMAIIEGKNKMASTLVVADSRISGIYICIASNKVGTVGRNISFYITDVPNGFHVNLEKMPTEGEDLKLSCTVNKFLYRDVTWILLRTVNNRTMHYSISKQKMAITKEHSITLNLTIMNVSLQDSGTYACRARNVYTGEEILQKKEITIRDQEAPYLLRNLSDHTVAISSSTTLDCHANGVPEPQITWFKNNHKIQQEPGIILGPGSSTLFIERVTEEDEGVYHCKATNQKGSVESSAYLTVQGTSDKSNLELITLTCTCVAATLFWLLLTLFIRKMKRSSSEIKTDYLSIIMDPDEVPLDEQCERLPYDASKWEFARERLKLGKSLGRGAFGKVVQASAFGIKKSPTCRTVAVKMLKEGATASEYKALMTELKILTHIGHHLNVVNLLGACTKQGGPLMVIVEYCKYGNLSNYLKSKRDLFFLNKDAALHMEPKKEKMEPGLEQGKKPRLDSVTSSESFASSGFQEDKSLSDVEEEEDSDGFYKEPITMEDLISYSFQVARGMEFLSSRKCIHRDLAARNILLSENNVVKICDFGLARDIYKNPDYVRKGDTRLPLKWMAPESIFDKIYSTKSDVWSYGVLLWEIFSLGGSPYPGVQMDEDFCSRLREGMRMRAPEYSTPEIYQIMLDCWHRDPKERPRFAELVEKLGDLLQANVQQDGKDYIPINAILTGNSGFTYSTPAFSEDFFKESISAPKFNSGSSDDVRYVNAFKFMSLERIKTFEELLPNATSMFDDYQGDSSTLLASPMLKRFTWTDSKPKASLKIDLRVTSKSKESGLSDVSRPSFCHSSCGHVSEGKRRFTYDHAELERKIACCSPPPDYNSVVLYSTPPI

For `NC(=O)c1c(OCc2ccc3c(c2)OCC3)nsc1NC(=O)NCCCCN1CCCC1` [Compound T042, 3-((2,3-dihydrobenzofuran-6-yl)methoxy)-5-(3-(4-(pyrrolidin-1-yl)butyl)ureido)isothiazole-4-carboxamide], the IC50 stood at 33000 nM in [1]; 34.3 nM in [2]; 448 nM in data set [3]; 79.9 nM in [4]; 42 nM in data set [6]; 22 nM in [7]. Further, in [8], the IC50 was determined as 14.2 nM. The concentration in solution in data set [5] (solubility at 8 h) was 820 µg/mL (≈ 1780 µM).

For the compound `COc1ccc(F)c(COc2nsc(NC(=O)NCCCCN3CCCC3)c2C(N)=O)c1F` [Compound T093, 3-((2,6-difluoro-3-methoxybenzyl)oxy)-5-(3-(4-(pyrrolidin-1-yl)butyl)ureido)isothiazole-4-carboxamide], the IC50 in data set [1] was 14600 nM; in data set [3] it was 181 nM; in data set [4], 55.8 nM; in [8], 12.4 nM. Moreover, in data set [9], the “MTD on the third day of eye drop administration” value was no less than 250 μg/eye. Further, the “MTD on the eighth day of eye drop administration” value in data set [9] is no less than 250 μg/eye. Besides, the “maximum tolerated dose (MTD)” value in data set [10] (setting [13]) is no less than 250 μg/eye. The fraction unbound at 2 h, 2 μM in data set [11] was 0.0531.

Consider `CN1CC[C@H](CCNC(=O)Nc2snc(OCc3cc4c(cc3F)CCO4)c2C(N)=O)C1` [Compound T095, 3-[(5-fluoro-2,3-dihydrobenzofuran-6-yl)methoxy]-5-[2-[(3S)-1-methylpyrrolidin-3-yl]ethylcarbamoylamino] isothiazole-4-carboxamide], for which the IC50 amounted to 11400 nM in data set [1], 55.8 nM in data set [4], 93 nM in [7] and 4.7 nM in data set [8]. Besides, in [11], the fraction unbound at 2 h, 2 μM was determined as 0.0469.

As for `COc1ccc(F)c(COc2nsc(NC(=O)NCCCCN3CC[C@H](O)C3)c2C(N)=O)c1F` [Compound T104, 3-[(2,6-difluoro-3-methoxy-phenyl)methoxy]-5-[4-[(3S)-3-hydroxypyrrolidin-1-yl]butylcarbamoylamino] isothiazole-4-carboxamide], the IC50 in [1] is 18900 nM; in [4], 35.5 nM; in data set [7] it was 34.5 nM; in data set [8], 16.4 nM. For the same compound, in [11], the fraction unbound at 2 h, 2 μM turned out to be 0.0322.

As to `COc1ccc(F)c(COc2nsc(NC(=O)NCCCCN3CC[C@@H](O)C3)c2C(N)=O)c1F` [Compound T114, 3-[(2,6-difluoro-3-methoxy-phenyl)methoxy]-5-[4-[(3R)-3-hydroxypyrrolidin-1-yl]butylcarbamoylamino]isothiazole-4-carboxamide], the IC50 in data set [1] was found to be 13400 nM; in data set [4] it was 19 nM; in data set [7] it was 32.5 nM; in [8], 12.8 nM. In data set [11], the fraction unbound at 2 h, 2 μM came to 0.0333.

For `COc1cc(OC)c(F)c(COc2nsc(NC(=O)NCCC3CCN(CCF)CC3)c2C(N)=O)c1F` [Compound T126, 3-[(2,6-difluoro-3,5-dimethoxy-phenyl)methoxy]-5-[2-[1-(2-fluoroethyl)-4-piperidyl]ethylcarbamoylamino]isothiazole-4-carboxamide], the IC50 in data set [1] was greater than 60000 nM; in data set [4] it was 22 nM; in data set [7], 27 nM; in [8], 2.7 nM. Moreover, in data set [11], the fraction unbound at 2 h, 2 μM turned out to be 0.0495.

In turn, `NC(=O)c1c(OCc2c(F)cc(Br)cc2F)nsc1NC(=O)NCCCCN1CCCC1` [PAN90806] showed an IC50 in data set [4] of 76.8 nM. In data set [5], this compound returned a solubility at 8 h of 124 µg/mL (≈ 234 µM). The Eye observations entry in data set [9] (100 μg/eye, six consecutive days, seventh day) is “ocular toxicity (corneal opacity and conjunctival swelling, or corneal edema and conjunctival hyperemia, or ocular discharge) was observed in all the 4 rabbits”. The “MTD on the third day of eye drop administration” value in data set [9] came to 100 μg/eye. For the same compound, the “MTD on the eighth day of eye drop administration” value in data set [9] is given as 50 μg/eye. For the same compound, the entries for the “maximum tolerated dose (MTD)” value in data set [10] (eye drops to rabbits for six consecutive days) and in data set [10] (setting [13]) were 50 μg/eye and 100 μg/eye, respectively. In [11], the fraction unbound at 2 h, 2 μM came to 0.0129. For the same compound, the “Percentage of free drug with respect to melanin, comparison in words” value in [12] was “lower percentage of free drug”.
